Results on 16 compounds are retold here after ChEMBL document CHEMBL3414466, “Synthesis and anticancer activity of N-substituted 2-arylquinazolinones bearing trans-stilbene scaffold” (Eur J Med Chem, 2015).

For test [1], the system named is MCF7. The test can be described thus: Cytotoxicity against human MCF7 cells by MTT assay. Format: functional, cell-based.
The test system of test [2] is T47D. The test can be described thus: Cytotoxicity against human T47D cells by MTT assay. Format: functional, cell-based.
Test [3] concerns MDA-MB-231. The test can be described thus: Cytotoxicity against human MDA-MB-231 cells by MTT assay. Format: functional, cell-based.
Test [4] has as its system MDA-MB-231. Description: Potency index, ratio of etoposide IC50 to compound IC50 for human MDA-MB-231 cells. Format: functional.
The subject of test [5] is MDA-MB-231. The test can be described thus: Induction of apoptosis in human MDA-MB-231 cells assessed as change in morphology at IC50 after 24 hrs by acridine orange/ethidium bromide staining-based fluorescence microscopic analysis. Format: functional, cell-based.
Test [6] relates to MCF7. The test can be described thus: Induction of apoptosis in human MCF7 cells assessed as necrotic cells at IC50 after 12 hrs by annexin V-FITC/propidium iodide staining-based flow cytometric analysis (reference value: 0.29%). Format: functional.
The subject of test [7] is MDA-MB-231. The test can be described thus: Induction of apoptosis in human MDA-MB-231 cells assessed as necrotic cells at IC50 after 12 hrs by annexin V-FITC/propidium iodide staining-based flow cytometric analysis (reference value: 0.97%). The test is classed as functional.
Test [8] concerns MCF7. The test can be described thus: Potency index, ratio of etoposide IC50 to compound IC50 for human MCF7 cells. Format: functional.
In test [9] the test system is MDA-MB-231. Description: Induction of apoptosis in human MDA-MB-231 cells assessed as late apoptotic cells at IC50 after 12 hrs by annexin V-FITC/propidium iodide staining-based flow cytometric analysis (reference value: 0.01%). The test is classed as functional.
For test [10], the system named is MCF7. Description: Induction of apoptosis in human MCF7 cells assessed as change in morphology at IC50 after 24 hrs by acridine orange/ethidium bromide staining-based fluorescence microscopic analysis. The test is classed as functional, cell-based.
For test [11], the system named is MCF7. Description: Induction of apoptosis in human MCF7 cells assessed as early apoptotic cells at IC50 after 12 hrs by annexin V-FITC/propidium iodide staining-based flow cytometric analysis (reference value: 2.49%). Format: functional.
Test [12] relates to MCF7. The test can be described thus: Induction of apoptosis in human MCF7 cells assessed as viable cells at IC50 after 12 hrs by annexin V-FITC/propidium iodide staining-based flow cytometric analysis (reference value: 97.23%). The test is classed as functional.
In test [13] the test system is MCF7. Description: Induction of apoptosis in human MCF7 cells assessed as late apoptotic cells at IC50 after 12 hrs by annexin V-FITC/propidium iodide staining-based flow cytometric analysis relative to control. Format: functional.
The subject of test [14] is MDA-MB-231. Description: Induction of apoptosis in human MDA-MB-231 cells assessed as viable cells at IC50 after 12 hrs by annexin V-FITC/propidium iodide staining-based flow cytometric analysis (reference value: 95.2%). The test is classed as functional.
Test [15] concerns T47D. Description: Potency index, ratio of etoposide IC50 to compound IC50 for human T47D cells. The test is classed as functional.
Test [16] deals with MDA-MB-231. The test can be described thus: Induction of apoptosis in human MDA-MB-231 cells assessed as early apoptotic cells at IC50 after 12 hrs by annexin V-FITC/propidium iodide staining-based flow cytometric analysis (reference value: 3.82%). The test is classed as functional.

Calls of active or inactive are those of the source. The rule behind the calls is not given here. Some results are limits rather than exact numbers.

With `O=c1c2ccccc2nc(-c2ccccc2/C=C/c2ccccc2)n1Cc1ccccc1`, the IC50 in test [1], in test [2] and in test [3] was more than 100 µM each time.
On to `COc1ccc(-n2c(-c3ccccc3/C=C/c3ccccc3)nc3ccccc3c2=O)cc1`, for which the IC50 in test [1], in [2] and in test [3] was more than 100 µM in each case.
Take `CCCn1c(-c2ccccc2/C=C/c2ccccc2)nc2ccccc2c1=O`: the IC50 in test [1] was 29.4 µM; in test [2] it was more than 100 µM; in test [3], more than 100 µM.
For `CCn1c(-c2ccccc2/C=C/c2ccccc2)nc2ccccc2c1=O`, the figures for the IC50 in [1], in test [2] and in [3] were 8.7 µM, 10.2 µM and 8.4 µM, respectively.
In the same order, the values of `CC(C)Cn1c(-c2ccccc2/C=C/c2ccccc2)nc2ccccc2c1=O` are 23.3 µM, 9.3 µM and 6.9 µM.
For `C=CCn1c(-c2ccccc2/C=C/c2ccccc2)nc2ccccc2c1=O`, in that order: 10.3 µM, 5.8 µM and 4.1 µM.
For `CCCCn1c(-c2ccccc2/C=C/c2ccccc2)nc2ccccc2c1=O`, in that order: 9.8 µM, 7.9 µM and 4 µM.
Turning to `CCC(C)n1c(-c2ccccc2/C=C/c2ccccc2)nc2ccccc2c1=O` (stereo not drawn), the “Ratio IC50” value in [4], in [8] and in test [15] was 2 in each case. The outcome in test [5] and in test [10] was Active. For the same compound, the Activity in test [6] is recorded as 2.14%; in test [7], 0.97%; in [9] it was 2.27%; in test [11], 26.45%; in test [12], 69.46%; in test [13], 1.95%. In addition, the Activity stood at 80.2% in [14] and 16.55% in test [16]. Further, the IC50 was 3.8 µM in test [1], 3.6 µM in test [2] and 4.9 µM in test [3].
As for `O=c1c2ccccc2nc(-c2ccccc2/C=C/c2ccccc2)n1C1CCCC1`, the IC50 in test [1], in test [2] and in [3] was more than 100 µM throughout.
As for `COc1cc([C@@H]2c3cc4c(cc3[C@@H](O[C@@H]3O[C@@H]5CO[C@@H](C)O[C@H]5[C@H](O)[C@H]3O)[C@H]3COC(=O)[C@H]23)OCO4)cc(OC)c1O` [ETOPOSIDE], the Activity amounted to 0.1% in test [6]; 0.27% in test [7]; 0.8% in test [9]; 36.92% in test [11]; 62.89% in test [12]; 0.08% in [13]. The values for the Activity in test [14] and in [16] were 76.53% and 22.41%, respectively. Besides, the IC50 in test [2] was 8.9 µM; in test [3] it was 10.3 µM.
Consider `O=c1c2ccccc2nc(-c2ccccc2/C=C/c2ccccc2)n1C1CC1`, for which the result in test [5] and in test [10] was Active. Also, the Activity was 0.59% in test [6]; 4.37% in test [7]; 3.09% in test [9]; 25.88% in test [11]; 72.75% in [12]; 0.77% in test [13]. For the same compound, the Activity in test [14] is 70.13%; in test [16] it was 22.41%. The IC50 turned out to be 5.3 µM in [1], 6.8 µM in [2] and 5.5 µM in [3].
On to `Cc1ccc(-n2c(-c3ccccc3/C=C/c3ccccc3)nc3ccccc3c2=O)cc1`, for which the IC50 in test [1], in [2] and in test [3] was more than 100 µM throughout.
In the case of `CC(C)n1c(-c2ccccc2/C=C/c2ccccc2)nc2ccccc2c1=O`, the IC50 in test [1] came out at 6.7 µM; in [2], 6.2 µM; in test [3], 8.4 µM.
`O=c1c2ccccc2nc(-c2ccccc2/C=C/c2ccccc2)n1-c1ccccc1`: the IC50 is 44.9 µM in test [1], more than 100 µM in [2] and more than 100 µM in test [3].
Take `COc1ccc(Cn2c(-c3ccccc3/C=C/c3ccccc3)nc3ccccc3c2=O)cc1`: the IC50 in test [1], in test [2] and in test [3] was more than 100 µM throughout.
In the case of `Cc1ccc(Cn2c(-c3ccccc3/C=C/c3ccccc3)nc3ccccc3c2=O)cc1`, the IC50 in [1] came to 24.7 µM; in [2] it was 28.2 µM; in test [3], 23.8 µM.
